Assay results reported in paper PMC7356157, “Shorter Antibacterial Peptide Having High Selectivity for E. coli Membranes and Low Potential for Inducing Resistance” (Microorganisms, 2020).
≈ marks a conversion by molar mass, not a printed value. Where two headings read alike, the source gives them in different places. No end group written: not given here.

What was measured:
[1] = tested on: E. coli N°4 (clinical isolate); conditions: broth microdilution; for MIC E. coli N°4: clinical isolate from urine
Experimental: (§1) The standard broth microdilution method was used for determining the peptides’ MIC [41]. […] Bacteria in Müller–Hinton broth (MHB) were used as negative control. […] The MIC was determined as the lowest peptide concentration at which bacterial growth was not detected.
(§2) Approximately 50 bacterial samples were then collected from E. coli-infected patients for evaluating activity of the peptides against some clinical isolates. These samples were identified and biochemically and metabolically characterised using the VITEK-2 equipment. Isolates were profiled regarding their resistance or susceptibility to a panel of conventionally used antibiotics.

[2] = tested on: E. coli N°40 (clinical isolate); conditions: broth microdilution; for MIC E. coli N°40: clinical isolate from blood
Experimental: as §1, §2

[3] = tested on: E. coli N°44 (clinical isolate); conditions: broth microdilution; for MIC E. coli N°44: clinical isolate from blood, ESBL (+)
Experimental: as §1, §2

[4] = tested on: E. coli clinical isolate 40; assay: Resistance profile of clinical isolate (VITEK-2); type: cell-based; conditions: Escherichia coli, isolate from blood
Source text: as §2

[5] = tested on: E. coli clinical isolate 44; assay: Resistance profile of clinical isolate (VITEK-2); type: cell-based; conditions: Escherichia coli, isolate from blood
Source text: as §2

[6] = tested on: E. coli clinical isolate 4; assay: Resistance profile of clinical isolate (VITEK-2); type: cell-based; conditions: Escherichia coli, isolate from urine
Source text: as §2

[7] = tested on: E. coli; assay: microbe, parasite or virus in culture; conditions: Escherichia coli, read-out: Individual gentamicin MIC
Experimental: (§6) The checkerboard method was used for evaluating peptide antibacterial activity in combination with antibiotics [43]. […] Absorbance was measured at 620 nm and individual peptide and antibiotic MIC and combined MIC were obtained. […] The fractional inhibitory concentration index (FICI) was then calculated as the sum of peptide FIC + antibiotic FIC. A ≤ 0.5 FICI indicated synergy, 0.5 to ≤4 FICI indifference, and >4 FICI antagonism [45].
(§7) The results were interpreted by taking the lowest checkerboard FIC index (previously reported method 3) [44].

[8] = tested on: E. coli ATCC 25922; type: cell-based; conditions: for MIC E. coli 25922: broth microdilution, MHB, ~5 × 10^5 CFU/mL, 18 h, 37 °C, OD 620 nm, 100 to 0.2 µM; for MIC against E. coli 25922, MHB: no serum
[9] = tested on: E. coli ATCC 25922; assay: Bactericidal activity (MBC); type: cell-based; conditions: aliquots of no-growth MIC wells on LBA, 18 h, 37 °C; kills 99.9%
Experimental: (§3) Bactericidal activity was evaluated by sowing an aliquot of Luria Bertani agar (LBA) in the wells where no growth had been detected in the MIC assay.

[10] = tested on: E. coli ML35 43827; assay: Bactericidal activity (MBC); type: cell-based
Experimental: as §3

[11] = tested on: P. aeruginosa 27853; assay: MIC by broth microdilution; type: cell-based; conditions: MHB, 18 h, 37 °C
[12] = tested on: human red blood cells (hRBC); assay: Haemolytic activity (MHC); type: cell-based; conditions: for MHC (minimum haemolytic concentration): 5% v/v hRBC in 1X PBS, 200–0.39 µM, 1 h, 37 °C, absorbance 560 nm
Experimental: A haemolytic activity assay was used for determining whether peptides acted on hRBC membrane by calculating the minimum haemolytic concentration (MHC). Briefly, 100 µL serial dilutions of peptides were incubated in a 96-well plate with an equal volume of a fresh hRBC suspension at 5% v/v in 1X PBS (200–0.39 µM final peptide concentrations). The samples were spun at 1000× g for 5 min after having been incubated at 37 °C for 1 h and a Multiskan spectrometer (Thermo Fisher) was used for measuring 100 µL supernatant absorbance at 560 nm. Treated hRBC absorbance 0.1% Triton X-100 or 100% haemolysis was used as positive control.

[13] = tested on: E. coli ML35 43827; type: cell-based; conditions: broth microdilution
[14] = tested on: E. coli 35218 (ampicillin-resistant ATCC 35218 strain); type: cell-based; conditions: broth microdilution
[15] = tested on: E. coli 35218; type: cell-based
Experimental: as §3

[16] = tested on: E. coli ATCC 11775; type: cell-based; conditions: broth microdilution
[17] = tested on: E. coli 25922; assay: Antibacterial activity in the presence of human sera; type: cell-based; conditions: for MIC against E. coli 25922, Serum (without Pre-Incubation): peptide diluted in fresh human sera (100%), then inoculum in MHB ~5 × 10^5 CFU/mL, 18 h, 37 °C
Experimental: The second assay involved peptide dilution in fresh human sera (100%) pre-incubated for 6 h at 37 °C in a humid chamber before putting them in contact with the bacterial inoculum diluted in MHB (~5 × 10^5 CFU/mL). The assay was incubated and read as mentioned in the microdilution section.

[18] = tested on: HeLa human cell line; conditions: cited from earlier work
Source text: (§4) Its therapeutic index (TI) calculated for E. coli ML35 is 0.045, indicating low selectivity [[ ...

[19] = tested on: HepG2 human cell line; conditions: cited from earlier work
Source text: as §4

[20] = tested on: human red blood cells (hRBC); conditions: cited from earlier work
Source text: as §4

[21] = tested on: E. coli ATCC 25922; assay: Potential for inducing bacterial resistance (serial subculture at 0.5 MIC); type: cell-based; conditions: repeated treatment with 0.5× MIC, 18 days, two independent assays in duplicate
Experimental: The MIC against this subculture was then determined by micro-dilution in broth. […] Two independent assays were carried out in duplicate. MIC changes were plotted for each subculture (day of assay).

[22] = tested on: E. coli ATCC 11775; assay: Bactericidal activity (MBC); type: cell-based
Experimental: as §3

[23] = tested on: E. coli N°40 (clinical isolate); type: cell-based
Experimental: as §3
(§5) Approximately 50 bacterial samples were then collected from E. coli-infected patients for evaluating activity of the peptides against some clinical isolates. These samples were identified and biochemically and metabolically characterised using the VITEK-2 equipment. Isolates were profiled regarding their resistance or susceptibility to a panel of conventionally used antibiotics. Three E. coli isolates having different resistance profiles were then selected following such characterisation (Appendix A): • Isolate 4 (from urine): extended spectrum beta-lactamase (ESBL) (-), resistant to ampicillin, quinolones and co-trimoxazole. • Isolate 40 (from blood): ESBL (-), resistant to ampicillin, 1st-generation cephalosporins and co-trimoxazole. • Isolate 44 (from blood): ESBL (+), resistant to aminoglycosides, quinolones, β-lactams (including 1st-, 3rd- and 4th-generation cephalosporins).

[24] = tested on: E. coli N°44 (clinical isolate); type: cell-based
Experimental: as §3, §5

[25] = tested on: E. coli
Experimental: as §6, §7

[26] = tested on: E. coli; remark: listed apart in the source
Experimental: as §6, §7

[27] = tested on: P. aeruginosa 27853; assay: Bactericidal activity (MBC); type: cell-based; conditions: LBA, 18 h, 37 °C
Experimental: as §3

[28] = tested on: E. coli (ATCC strains and clinical isolates); assay: MIC summarised over several E. coli strains; type: cell-based
Experimental: The standard broth microdilution method was used for determining the peptides’ MIC [41]. Briefly, serial peptide dilutions (100 to 0.2 µM concentration) were incubated in 96-well plates at 100 μL/well final volume for 18 h at 37 °C in a damp chamber with ~5 × 10^5 CFU/mL bacterial inoculum (calculated from the calibration curve equation previously obtained for each strain (Figure S1)). Optical density (OD) was measured at 620 nm after 18 h on a microplate reader. Bacteria in Müller–Hinton broth (MHB) were used as negative control. […] The MIC was determined as the lowest peptide concentration at which bacterial growth was not detected.

[29] = tested on: E. coli ML35; assay: Permeabilising internal membrane (ONPG); type: cell-based; conditions: 1× MIC

Compound	MIC E. coli 25922 [8] [µM]	MIC against E. coli 25922, MHB [8] [µM]	MBC E. coli 25922 [9] [µM]	MBC E. coli ML35 43827 [10] [µM]	MIC P. aeruginosa 27853 [11] [µM]	MHC (minimum haemolytic concentration) [12] [µM]	MIC E. coli ML35 43827 [13] [µM]	MIC E. coli 35218 [14] [µM]	MBC E. coli 35218 [15] [µM]	MIC E. coli 11775 [16] [µM]	MIC against E. coli 25922, Serum (without Pre-Incubation) [17] [µM]	fold increase in MIC over initial MIC [21]	MIC E. coli N°4 [1] [µM]	MIC E. coli N°40 [2] [µM]	MIC E. coli N°44 [3] [µM]	MBC E. coli N°44 [24] [µM]	other results
CNC(C)C1CCC(N)C(OC2C(N)CC(N)C(OC3OCC(C)(O)C(NC)C3O)C2O)O1 (stereo not drawn) [Gentamicin, gentamicin]																	MIC E. coli N°4 (antibiotics) ([1]; clinical isolate): 2 µg/mL (≈ 4.19 µM); MIC E. coli N°40 (antibiotics) ([2]; clinical isolate): 1 µg/mL (≈ 2.09 µM); MIC E. coli N°44 (antibiotics) ([3]; clinical isolate): >16 µg/mL; MIC [4]: ≤ 1 µg/mL; MIC [5]: ≥ 16 µg/mL; MIC [6]: ≤ 1 µg/mL; MIC [7]: 0.5 µg/mL (≈ 1.05 µM)
RYRRKKKMKKALQYIKLLKE-NH2 [Peptide 35409, reference compound]	25	25	50	25	>100	1.56	25	6	6	>100	25						cytotoxic activity against HeLa [18]: did not have cytotoxic activity; cytotoxic activity against HepG2 [19]: did not have cytotoxic activity; MHC against human red blood cells [20]: 1.5 µM
CN(C)[C@@H]1C(O)=C(C(N)=O)C(=O)[C@@]2(O)C(O)=C3C(=O)c4c(O)cccc4[C@@](C)(O)[C@H]3C[C@@H]12 [Tetracycline, tetracycline, reference compound]												128 fold					
KKMKKALQYIKLLK-NH2 [Peptide 35409-13]	50	50	50	50	>100	>200	25	25	100	100	50		>100	50	25	50	MBC E. coli 11775 [22]: > 100 µM; MBC E. coli N°40 [23]: 100 µM; FIC Index ([25]; peptide + ciprofloxacin, lowest checkerboard FIC index (method 3)): 3; FIC P (peptide) ([25]; with ciprofloxacin): 1; FIC Index ([26]; peptide + gentamicin, lowest checkerboard FIC index (method 3)): 0.75; FIC P (peptide) ([26]; with gentamicin): 0.25
RKKKMKKALQYIKLLKE-NH2 [Peptide 35409-1]	25	25	25	3	100	>200	3	6	6	>100	12.5	eight-fold	>100	25	12.5	100	MBC P. aeruginosa 27853 [27]: 100 µM; haemolysis relative to average MIC ([12]; concentration as multiple of average MIC 14.3 µM): did not induce haemolysis at 14-fold higher concentrations; MIC against E. coli 25922, Serum (6 h Pre-Incubation) ([17]; peptide in fresh human sera (100%) pre-incubated 6 h at 37 °C before inoculum, stability read-out): 50 µM; average MIC against E. coli [28]: 14.3 µM; time at which maximum permeabilisation was reached ([29]; 1X PBS, 1.5 mM ONPG, 37 °C, 405 nm every 30 min for 4.5 h, triplicate): 1.5 h; permeabilisation of E. coli internal membrane ([29]; ONPG, 405 nm, 4.5 h): did act on E. coli internal membrane; Interpretation ([25]; peptide + ciprofloxacin): Indifference; x MIC Combination, Peptide ([25]; with ciprofloxacin, fraction of individual peptide MIC (individual = 1)): 1/1 x MIC; Interpretation ([26]; peptide + gentamicin): Indifference; x MIC Combination, Peptide ([26]; with gentamicin, fraction of individual peptide MIC (individual = 1)): 1/0.25 x MIC
